Converted amounts (≈) assume the structure as drawn. The source made the active and inactive calls. No cut-off for these calls is given here.
Legend:
Spodoptera litura = assay: Insecticidal activity against Spodoptera litura cabbage leaf disk after 4 to 7 days by leaf dipping method; type: functional; conditions: foliar
[1] = target: Ryanodien receptor (Spodoptera exigua) (UniProt H9CNL0); assay: Activation of ryanodine receptor in sixth-instar larvae of Spodoptera litura muscle membrane assessed as induction of Ca2+ pump at 10 uM after 30 min relative to control
[2] = target: Ryanodien receptor (Spodoptera exigua) (UniProt H9CNL0); assay: Activation of ryanodine receptor in sixth-instar larvae of Spodoptera litura muscle membrane assessed as induction of Ca2+ pump at 1 uM after 30 min relative to control
[3] = target: Ryanodien receptor (Spodoptera exigua) (UniProt H9CNL0); assay: Activation of ryanodine receptor in sixth-instar larvae of Spodoptera litura muscle membrane assessed as induction of Ca2+ pump at 0.1 uM after 30 min relative to control
[4] = target: Ryanodien receptor (Spodoptera exigua) (UniProt H9CNL0); assay: Activation of ryanodine receptor in sixth-instar larvae of Spodoptera litura muscle membrane assessed as induction of Ca2+ pump at 1 to 100 uM after 30 min
[5] = target: Ryanodien receptor (Spodoptera exigua) (UniProt H9CNL0); assay: Activation of ryanodine receptor in sixth-instar larvae of Spodoptera litura muscle membrane assessed as induction of Ca2+ pump at 0.1 uM after 30 min in presence of ryanodine
[6] = target: Ryanodien receptor (Spodoptera exigua) (UniProt H9CNL0); assay: Activation of ryanodine receptor in sixth-instar larvae of Spodoptera litura muscle membrane assessed as induction of Ca2+ pump at 2 uM after 30 min relative to control
[7] = target: Ryanodien receptor (Spodoptera exigua) (UniProt H9CNL0); assay: Activation of ryanodine receptor in sixth-instar larvae of Spodoptera litura muscle membrane assessed as induction of Ca2+ pump at 0.4 uM after 30 min relative to control

Compound | LC50 (Spodoptera litura) [µg/mL] | further results
Cc1cc(Cl)ccc1NC(=O)c1ccccc1C(=O)NC(C)C | 10 (≈ 30.2 µM) | 
C/C=C(/C)C(=O)O[C@H]1C(C)=C2[C@H]([C@@H]1OC(=O)CCCCCCC)[C@@](C)(OC(C)=O)C[C@H](OC(=O)CCC)[C@@]1(O)[C@H]2OC(=O)[C@@]1(C)O |  | Activity [1]: 31%; Activity [2]: 31.7%; Activity [3]: 67.8%
Cc1cc(OC(F)(F)F)ccc1NC(=O)c1cccc(I)c1C(=O)NC(C)C | 1 (≈ 1.98 µM) | 
CSCC(C)(C)NC(=O)c1c(I)cccc1C(=O)Nc1ccc(C(F)(C(F)(F)F)C(F)(F)F)cc1C | 0.03 (≈ 0.0461 µM) | 
CC(C)[C@@]1(O)[C@@H](OC(=O)c2cc[nH]c2)[C@@]2(O)[C@]3(C)C[C@@]4(O)O[C@@]5([C@H](O)[C@@H](C)CC[C@]35O)[C@@]2(O)[C@@]41C |  | Activity [4]: Active
Cc1cc(Cl)ccc1NC(=O)c1cccc(Br)c1C(=O)NC(C)C | 10 (≈ 24.4 µM) | 
CSCC(C)(C)NC(=O)c1c(C(=O)Nc2ccc(C(F)(C(F)(F)F)C(F)(F)F)cc2C)cc(Cl)c(Cl)c1I | > 10 | 
Cc1cc(C(F)(C(F)(F)F)C(F)(F)F)ccc1NC(=O)c1cccc(I)c1C(=O)NC(C)C | 0.1 (≈ 0.169 µM) | 
Cc1cc(C(F)(C(F)(F)F)C(F)(F)F)ccc1NC(=O)c1cccc(I)c1C(=O)NC(C)(C)CS(C)(=O)=O [FLUBENDIAMIDE] | 0.03 (≈ 0.044 µM) | Activity [5]: inactive
Cc1cc(C(F)(F)C(F)(F)F)ccc1NC(=O)c1cccc(I)c1C(=O)NC(C)C | 0.3 (≈ 0.555 µM) | 
CNc1ccc2oc(C[C@H]3O[C@@]4(CC[C@H]3C)O[C@H]([C@H](C)C(=O)c3ccc[nH]3)[C@H](C)C[C@H]4C)nc2c1C(=O)O |  | Activity [6]: 358%; Activity [7]: 158%
Cc1cc(OC(F)F)ccc1NC(=O)c1cccc(I)c1C(=O)NC(C)C | 1 (≈ 2.05 µM) | 

From ChEMBL document CHEMBL3045342, “Quantitative relationship between insecticidal activity and Ca2+ pump stimulation by flubendiamide and its related compounds” (J Pestic Sci, 2009)
